According to ChEMBL document CHEMBL3044761, “Lethal Activity of a Trehalase Inhibitor, Validoxylamine A, against Mamestra brassicae and Spodoptera litura” (J Pestic Sci, 1994):

Tests used:
[1] = target: T1, Vacuolar acid trehalase (Saccharomyces cerevisiae (strain ATCC 204508 / S288c) (Baker's yeast), UniProt P48016); experiment: Inhibition of Saccharomyces cerevisiae trehalase; conditions: read-out: I50
T1 sequence (P48016 whole entry): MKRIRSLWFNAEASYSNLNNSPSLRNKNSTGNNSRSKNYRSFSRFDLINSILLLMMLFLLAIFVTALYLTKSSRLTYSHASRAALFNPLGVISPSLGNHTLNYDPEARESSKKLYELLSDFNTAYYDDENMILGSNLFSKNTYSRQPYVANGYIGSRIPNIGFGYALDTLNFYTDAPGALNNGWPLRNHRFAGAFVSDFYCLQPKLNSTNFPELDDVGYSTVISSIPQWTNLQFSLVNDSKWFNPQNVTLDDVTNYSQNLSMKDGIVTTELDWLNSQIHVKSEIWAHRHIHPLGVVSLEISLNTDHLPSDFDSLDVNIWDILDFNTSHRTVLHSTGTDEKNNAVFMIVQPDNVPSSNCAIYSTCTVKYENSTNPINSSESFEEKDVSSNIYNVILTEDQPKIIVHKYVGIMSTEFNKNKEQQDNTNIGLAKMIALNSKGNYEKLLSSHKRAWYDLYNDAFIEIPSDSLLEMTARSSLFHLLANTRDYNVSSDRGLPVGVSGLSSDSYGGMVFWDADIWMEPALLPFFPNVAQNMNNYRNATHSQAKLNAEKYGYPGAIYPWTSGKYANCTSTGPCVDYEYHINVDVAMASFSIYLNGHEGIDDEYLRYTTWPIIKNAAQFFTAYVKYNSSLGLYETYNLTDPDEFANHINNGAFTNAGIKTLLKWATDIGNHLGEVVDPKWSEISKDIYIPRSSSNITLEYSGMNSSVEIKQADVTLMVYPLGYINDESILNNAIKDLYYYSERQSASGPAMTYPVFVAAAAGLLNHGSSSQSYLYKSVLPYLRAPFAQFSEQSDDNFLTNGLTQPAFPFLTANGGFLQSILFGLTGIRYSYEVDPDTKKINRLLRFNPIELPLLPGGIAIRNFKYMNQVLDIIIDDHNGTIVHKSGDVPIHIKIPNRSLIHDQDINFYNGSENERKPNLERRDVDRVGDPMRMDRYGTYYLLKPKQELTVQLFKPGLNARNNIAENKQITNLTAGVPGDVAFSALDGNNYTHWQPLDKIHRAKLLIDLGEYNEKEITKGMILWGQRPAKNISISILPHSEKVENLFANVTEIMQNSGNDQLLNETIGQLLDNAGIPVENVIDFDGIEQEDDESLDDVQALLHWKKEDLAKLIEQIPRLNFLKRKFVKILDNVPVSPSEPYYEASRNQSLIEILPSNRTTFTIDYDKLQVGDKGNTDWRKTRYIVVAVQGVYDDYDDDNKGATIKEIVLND

[2] = tested on: Spodoptera litura; experiment: Insecticidal activity against last-instar Spodoptera litura larvae assessed as mortality; type: functional
[3] = tested on: Spodoptera litura; experiment: Insecticidal activity against last-instar Spodoptera litura larvae assessed as larval pupal intermediate at 50 ug/larvae topical application (reference value: […]); type: functional
[4] = tested on: Spodoptera litura; experiment: Insecticidal activity against last-instar Spodoptera litura larvae assessed as larval pupal intermediate injected at 50 ug/larvae (reference value: […]); type: functional
[5] = tested on: Spodoptera litura; experiment: Insecticidal activity against last-instar Spodoptera litura larvae assessed as larval pupal intermediate injected at 2 ug/larvae (reference value: […]); type: functional
[6] = tested on: Spodoptera litura; experiment: Insecticidal activity against last-instar Spodoptera litura larvae assessed as partial pupation injected at 10 ug/larvae (reference value: […]); type: functional
[7] = tested on: Spodoptera litura; experiment: Insecticidal activity against last-instar Spodoptera litura larvae assessed as partial pupation injected at 2 ug/larvae (reference value: 100%); type: functional
[8] = tested on: Spodoptera litura; experiment: Insecticidal activity against last-instar Spodoptera litura larvae assessed as wing pad separation injected at 50 ug/larvae (reference value: 100%); type: functional
[9] = tested on: Spodoptera litura; experiment: Insecticidal activity against last-instar Spodoptera litura larvae assessed as wing pad separation injected at 2 ug/larvae (reference value: 100%); type: functional
[10] = target: T2, Chitinase A1 (Thanatephorus cucumeris (strain AG1-IB / isolate 7/3/14) (Lettucebottom rot fungus) (Rhizoctonia solani), UniProt M5BZV0); experiment: Inhibition of Rhizoctonia solani chitinase; conditions: read-out: I50
T2 sequence (M5BZV0 whole entry): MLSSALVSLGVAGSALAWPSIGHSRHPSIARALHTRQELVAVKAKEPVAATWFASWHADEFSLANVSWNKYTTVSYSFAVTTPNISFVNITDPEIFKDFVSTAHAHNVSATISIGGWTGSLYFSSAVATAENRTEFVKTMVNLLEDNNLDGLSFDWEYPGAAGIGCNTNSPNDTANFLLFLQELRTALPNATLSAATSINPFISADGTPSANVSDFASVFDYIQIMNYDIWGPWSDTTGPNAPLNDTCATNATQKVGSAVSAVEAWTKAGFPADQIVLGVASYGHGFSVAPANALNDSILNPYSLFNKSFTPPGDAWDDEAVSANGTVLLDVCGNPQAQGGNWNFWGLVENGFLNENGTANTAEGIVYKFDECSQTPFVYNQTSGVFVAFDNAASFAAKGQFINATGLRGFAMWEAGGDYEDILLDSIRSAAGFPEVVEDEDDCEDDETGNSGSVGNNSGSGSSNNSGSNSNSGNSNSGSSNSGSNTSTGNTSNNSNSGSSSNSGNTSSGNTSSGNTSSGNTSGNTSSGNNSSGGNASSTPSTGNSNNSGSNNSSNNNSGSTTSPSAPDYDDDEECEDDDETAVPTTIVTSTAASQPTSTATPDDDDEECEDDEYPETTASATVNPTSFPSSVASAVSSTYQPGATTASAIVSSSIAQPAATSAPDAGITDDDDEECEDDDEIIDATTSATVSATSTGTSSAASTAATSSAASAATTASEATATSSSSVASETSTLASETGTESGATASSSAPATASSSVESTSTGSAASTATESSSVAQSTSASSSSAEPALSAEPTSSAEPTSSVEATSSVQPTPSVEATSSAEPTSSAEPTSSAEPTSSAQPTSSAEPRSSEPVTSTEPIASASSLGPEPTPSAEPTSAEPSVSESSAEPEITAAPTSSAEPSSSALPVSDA

[11] = tested on: Mamestra brassicae; experiment: Insecticidal activity against last-instar Mamestra brassicae larvae assessed as partial pupation injected at 10 ug/larvae (reference value: 10%); type: functional
[12] = tested on: Mamestra brassicae; experiment: Insecticidal activity against last-instar Mamestra brassicae larvae assessed as wing pad separation injected at 10 ug/larvae (reference value: 0%); type: functional
[13] = tested on: Spodoptera litura; experiment: Insecticidal activity against last-instar Spodoptera litura larvae assessed as normal pupae injected at 10 ug/larvae (reference value: 100%); type: functional
[14] = tested on: Mamestra brassicae; experiment: Insecticidal activity against last-instar Mamestra brassicae larvae assessed as larval-pupal intermediate injected at 50 ug/larvae (reference value: 0%); type: functional
[15] = tested on: Mamestra brassicae; experiment: Insecticidal activity against last-instar Mamestra brassicae larvae assessed as larval-pupal intermediate injected at 1 ug/larvae (reference value: 0%); type: functional
[16] = tested on: Mamestra brassicae; experiment: Insecticidal activity against last-instar Mamestra brassicae larvae assessed as partial pupation at 50 ug/larvae oral administration (reference value: 10%); type: functional
[17] = tested on: Mamestra brassicae; experiment: Insecticidal activity against last-instar Mamestra brassicae larvae assessed as partial pupation at 50 ug/larvae topical application (reference value: 10%); type: functional

OCC1=C[C@H](N[C@H]2C[C@H](CO)[C@@H](O)[C@H](O)[C@H]2O)[C@H](O)[C@@H](O)[C@@H]1O [VALIDOXYLAMINE A]
IC50 [1]: 0.003 µM
LD50 [2]: 2.42 µg
Activity [3]: 5%
Activity [4]: 58%
Activity [5]: 15%
Activity [6]: 40%
Activity [7]: 20%
Activity [8]: 13%
Activity [9]: 5%
IC50 [10]: > 1000 µM
Activity [11]: 13%
Activity [12]: 7%
Activity [13]: 20%
Activity [14]: 100%
Activity [15]: 27%
Activity [16]: 0%
Activity [17]: 40%
